The values below come from patent US8829167B2, “Foliamangiferosides, preparation method and use thereof” (Tianjin University of Traditional Chinese Medicine, priority 2009, dated 2014).

The target of this experiment is T1, α-glucosidase derived from rat intestines (Rattus norvegicus, UniProt P23739).
T1 construct: The brush border membrane is scraped; from tissue; host or cells: Wistar male rat jejunum, brush border membrane (crude preparation)
In words: α-glucosidase inhibiting activity (sucrose hydrolysis by rat intestinal brush border crude enzyme, glucose assay kit). It counts as biochemical. The settings on record: for inhibition of the conversion of sucrose into glucose under the catalysis of α-glucosidase in intestines (in words): in vitro; for Inhibition ratio: sucrose substrate, 37° C., 30 min. The protocol: The research process of α-glucosidase inhibiting activity: A Wistar male rat (body weight: about 200 g) is sacrificed by decapitation. The jejunum is taken out. The brush border membrane is scraped and then mixed into 0.1 M maleic acid buffer solution (pH 6.0). The mixture is used as α-glucosidase crude enzyme. 50 uL of sample solution dissolved in 2.5% DMSO is added into 100 uL of […] sucrosebase solution, into which 50 uL of the α-glucosidase solution derived from rat intestines is added. The mixture is reacted for 30 minutes at 37° C. before adding 800 uL of water and placing into boiling water bath for 2 minutes to be inactivated. The amount of the glucose produced is assayed with glucose assay kits.
Preparation of Sample Solution Group
0.1 M of maleic acid aqueous solution is mixed with 0.1 M of sodium maleate aqueous solution. The mixture is adjusted to pH 6.0 and is used as 0.1 M of maleic acid buffer solution. A sample is dissolved into DMSO solution and diluted 10 times with 0.1 M of maleic acid buffer solution. A sample solution is obtained and ready to use.
Sample group: The group in which a sample is added according to the experimental procedure described above (the samples are foliamangiferoside A (obtained in example 1) and foliamangiferoside B (obtained in example 2)); Control group: The group in which 2.5% DMSO solution is added according to the experimental procedure described above; Blank group: The type and amount of the agents are the same with those in sample group except that 800 uL of water is added immediately after 50 uL of the α-glucosidase solution derived from rat intestines is added, then the mixture is placed into a boiling water bath for 2 minutes to conduct inactivation. Furthermore, the similar experiments are conducted with ethanolic extracts of mango leaves (the product obtained in step 1 of example 1).
The following equation is used to calculate the inhibition ratio (%): inhibition ratio (%)=(A−B)/(A−C)*100
wherein, A is the absorbance of control group, B is the absorbance of sample group and C is the absorbance of blank group.

T1 sequence (P23739 whole entry): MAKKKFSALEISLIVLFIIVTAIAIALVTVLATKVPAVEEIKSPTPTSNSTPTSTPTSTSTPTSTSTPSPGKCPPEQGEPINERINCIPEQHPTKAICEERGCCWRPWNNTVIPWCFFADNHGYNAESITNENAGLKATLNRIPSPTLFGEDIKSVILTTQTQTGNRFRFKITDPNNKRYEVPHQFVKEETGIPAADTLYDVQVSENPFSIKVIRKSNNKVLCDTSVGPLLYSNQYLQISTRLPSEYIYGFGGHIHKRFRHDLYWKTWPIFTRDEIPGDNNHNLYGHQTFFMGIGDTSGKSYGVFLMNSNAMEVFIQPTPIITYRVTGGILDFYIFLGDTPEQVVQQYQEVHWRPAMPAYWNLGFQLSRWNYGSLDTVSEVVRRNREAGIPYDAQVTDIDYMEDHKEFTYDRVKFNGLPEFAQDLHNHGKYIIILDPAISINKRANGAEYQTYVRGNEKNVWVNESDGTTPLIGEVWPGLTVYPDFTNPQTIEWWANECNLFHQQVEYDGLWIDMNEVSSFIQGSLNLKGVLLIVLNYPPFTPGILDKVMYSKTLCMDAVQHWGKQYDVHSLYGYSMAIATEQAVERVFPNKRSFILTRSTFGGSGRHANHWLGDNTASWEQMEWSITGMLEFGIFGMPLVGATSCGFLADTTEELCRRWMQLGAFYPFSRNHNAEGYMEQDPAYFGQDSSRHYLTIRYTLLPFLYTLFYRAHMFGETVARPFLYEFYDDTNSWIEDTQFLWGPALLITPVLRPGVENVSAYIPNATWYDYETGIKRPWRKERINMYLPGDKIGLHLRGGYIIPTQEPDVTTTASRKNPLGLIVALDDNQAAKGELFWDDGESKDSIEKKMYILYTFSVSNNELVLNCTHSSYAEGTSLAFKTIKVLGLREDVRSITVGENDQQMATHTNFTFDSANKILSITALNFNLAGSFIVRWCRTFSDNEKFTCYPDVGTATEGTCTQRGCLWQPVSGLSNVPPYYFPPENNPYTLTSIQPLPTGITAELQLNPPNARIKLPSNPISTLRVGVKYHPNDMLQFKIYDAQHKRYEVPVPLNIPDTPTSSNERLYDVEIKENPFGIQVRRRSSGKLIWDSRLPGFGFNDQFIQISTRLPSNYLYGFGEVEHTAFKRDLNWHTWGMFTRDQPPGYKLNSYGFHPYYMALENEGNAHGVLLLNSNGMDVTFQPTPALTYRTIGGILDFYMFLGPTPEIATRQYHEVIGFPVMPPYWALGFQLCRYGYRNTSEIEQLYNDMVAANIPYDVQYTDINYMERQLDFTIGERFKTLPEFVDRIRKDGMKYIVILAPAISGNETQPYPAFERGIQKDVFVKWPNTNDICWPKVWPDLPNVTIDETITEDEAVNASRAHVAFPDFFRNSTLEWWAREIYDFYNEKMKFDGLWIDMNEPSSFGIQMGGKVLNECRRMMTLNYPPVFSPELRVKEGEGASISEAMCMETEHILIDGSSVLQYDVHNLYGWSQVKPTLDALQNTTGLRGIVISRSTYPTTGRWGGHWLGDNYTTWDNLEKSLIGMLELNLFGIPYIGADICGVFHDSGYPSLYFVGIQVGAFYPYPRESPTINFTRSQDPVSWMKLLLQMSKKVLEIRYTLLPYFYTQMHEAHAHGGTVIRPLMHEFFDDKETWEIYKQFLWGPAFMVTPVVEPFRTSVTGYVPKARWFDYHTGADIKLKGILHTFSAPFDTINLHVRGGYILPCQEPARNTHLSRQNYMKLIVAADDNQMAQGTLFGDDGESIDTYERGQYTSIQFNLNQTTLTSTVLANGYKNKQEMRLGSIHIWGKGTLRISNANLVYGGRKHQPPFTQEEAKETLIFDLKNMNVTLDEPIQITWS

Turning to `COc1cc(C(=O)c2c(O)cc(OC)c([C@@H]3OC(CO)[C@@H](O)C(O)C3O)c2O)ccc1O` (some centres unmarked) [Foliamangiferoside B, foliamangiferoside B], the “inhibition of the conversion of sucrose into glucose under the catalysis of α-glucosidase in intestines (in words)” value was “can effectively inhibit”. In addition, where the note is “sample 50 uM”, the “Sample group Conc. of glucose hydrolyzed” value is 5.23 mg/dL and the Inhibition ratio amounted to 19.6%. Under “sample 100 uM”, the “Sample group Conc. of glucose hydrolyzed” value turned out to be 4.64 mg/dL and the Inhibition ratio amounted to 23.9%. Further, where the note is “sample 200 uM”, the “Sample group Conc. of glucose hydrolyzed” value stood at 4.12 mg/dL and the Inhibition ratio is 29.6%. Moreover, for the setting “sample 400 uM”, the “Sample group Conc. of glucose hydrolyzed” value is 3.71 mg/dL and the Inhibition ratio turned out to be 45.6%. Also, the Inhibition ratio (sample 400 uM, listed as foliamangiferoside B) turned out to be 45.6%.
In the case of `COc1cc(O)c(C(=O)c2ccc(O)cc2)c(O)c1[C@@H]1O[C@H](CO)[C@@H](O)[C@H](O)[C@H]1O` [Foliamangiferoside A, foliamangiferoside A], the “inhibition of the conversion of sucrose into glucose under the catalysis of α-glucosidase in intestines (in words)” value is reported as “can effectively inhibit”. Also, for the setting “sample 50 uM”, the “Sample group Conc. of glucose hydrolyzed” value stood at 5.23 mg/dL and the Inhibition ratio amounted to 15.8%. Besides, where the note is “sample 100 uM”, the “Sample group Conc. of glucose hydrolyzed” value amounted to 4.64 mg/dL and the Inhibition ratio was determined as 20.2%. Besides, under “sample 200 uM”, the “Sample group Conc. of glucose hydrolyzed” value came out at 4.12 mg/dL and the Inhibition ratio came out at 26.2%. Besides, where the note is “sample 400 uM”, the “Sample group Conc. of glucose hydrolyzed” value is 3.09 mg/dL and the Inhibition ratio is given as 58.2%. The Inhibition ratio (sample 400 uM, listed as foliamangiferoside A) is on record as 58.2%.
